In the NIST ThermoML archive (doi:10.1016/j.jct.2010.08.010):

Settings: Liquid, Buoyancy - hydrostatic balance with magnetic suspension - one sinker

CCO [ethanol]
Settings | mass density [kg/m3]
233.15 K, 103.29 kPa | 840.318
233.15 K, 1104.7 kPa | 840.959
233.15 K, 2004.6 kPa | 841.531
233.15 K, 4076.8 kPa | 842.835
233.15 K, 6134.1 kPa | 844.107
233.15 K, 8092.6 kPa | 845.306
233.15 K, 10007 kPa | 846.455
233.15 K, 12137 kPa | 847.721
233.15 K, 14139 kPa | 848.897
233.15 K, 16099 kPa | 850.035
233.15 K, 18082 kPa | 851.168
233.15 K, 20011 kPa | 852.258
233.15 K, 22096 kPa | 853.419
233.15 K, 24040 kPa | 854.493
233.15 K, 25991 kPa | 855.559
233.15 K, 27978 kPa | 856.635
233.15 K, 29956 kPa | 857.691
253.15 K, 102.67 kPa | 823.303
253.15 K, 1104.1 kPa | 824.013
253.15 K, 2003.9 kPa | 824.651
253.15 K, 4116.4 kPa | 826.119
253.15 K, 6065.7 kPa | 827.455
253.15 K, 8137.6 kPa | 828.849
253.15 K, 10136 kPa | 830.174
253.15 K, 12072 kPa | 831.443
253.15 K, 14126 kPa | 832.763
253.15 K, 16133 kPa | 834.037
253.15 K, 17950 kPa | 835.17
253.15 K, 19863 kPa | 836.357
253.15 K, 22055 kPa | 837.687
253.15 K, 23993 kPa | 838.859
253.15 K, 25929 kPa | 840.004
253.15 K, 27985 kPa | 841.212
253.15 K, 30009 kPa | 842.379
273.15 K, 102.91 kPa | 806.406
273.15 K, 1099 kPa | 807.191
273.15 K, 2003.9 kPa | 807.905
273.15 K, 4161.8 kPa | 809.57
273.15 K, 6026.6 kPa | 810.981
273.15 K, 8023.2 kPa | 812.466
273.15 K, 10006 kPa | 813.916
273.15 K, 12107 kPa | 815.421
273.15 K, 13929 kPa | 816.718
273.15 K, 15980 kPa | 818.142
273.15 K, 17875 kPa | 819.435
273.15 K, 20011 kPa | 820.885
273.15 K, 21848 kPa | 822.104
273.15 K, 24050 kPa | 823.548
273.15 K, 25880 kPa | 824.728
273.15 K, 27865 kPa | 826.002
273.15 K, 29956 kPa | 827.312
293.15 K, 103.01 kPa | 789.433
293.15 K, 1103.9 kPa | 790.313
293.15 K, 2004 kPa | 791.096
293.15 K, 4147.8 kPa | 792.937
293.15 K, 6147.5 kPa | 794.616
293.15 K, 8110.8 kPa | 796.232
293.15 K, 10008 kPa | 797.758
293.15 K, 11860 kPa | 799.229
293.15 K, 13880 kPa | 800.802
293.15 K, 15954 kPa | 802.391
293.15 K, 17852 kPa | 803.817
293.15 K, 19967 kPa | 805.383
293.15 K, 21842 kPa | 806.743
293.15 K, 23888 kPa | 808.2
293.15 K, 25963 kPa | 809.658
293.15 K, 27862 kPa | 810.975
293.15 K, 30031 kPa | 812.452
313.15 K, 102.5 kPa | 772.101
313.15 K, 1103.5 kPa | 773.094
313.15 K, 2103.5 kPa | 774.069
313.15 K, 4116 kPa | 775.994
313.15 K, 6079.7 kPa | 777.835
313.15 K, 8130.4 kPa | 779.714
313.15 K, 10007 kPa | 781.394
313.15 K, 12116 kPa | 783.241
313.15 K, 14081 kPa | 784.928
313.15 K, 16092 kPa | 786.617
313.15 K, 18056 kPa | 788.235
313.15 K, 19919 kPa | 789.747
313.15 K, 22046 kPa | 791.432
313.15 K, 24130 kPa | 793.056
313.15 K, 26107 kPa | 794.571
313.15 K, 27987 kPa | 795.987
313.15 K, 29995 kPa | 797.476
333.15 K, 1102.5 kPa | 755.18
333.15 K, 2002.7 kPa | 756.173
333.15 K, 4085.9 kPa | 758.43
333.15 K, 6133 kPa | 760.589
333.15 K, 8031.9 kPa | 762.538
333.15 K, 9967.1 kPa | 764.48
333.15 K, 12099 kPa | 766.557
333.15 K, 13992 kPa | 768.358
333.15 K, 16124 kPa | 770.342
333.15 K, 18019 kPa | 772.071
333.15 K, 20012 kPa | 773.85
333.15 K, 22050 kPa | 775.625
333.15 K, 24136 kPa | 777.409
333.15 K, 26130 kPa | 779.08
333.15 K, 28069 kPa | 780.679
333.15 K, 30018 kPa | 782.258
353.15 K, 1101.8 kPa | 736.102
353.15 K, 2002.9 kPa | 737.255
353.15 K, 4009.6 kPa | 739.749
353.15 K, 5946.1 kPa | 742.072
353.15 K, 8005.6 kPa | 744.473
353.15 K, 10092 kPa | 746.834
353.15 K, 12108 kPa | 749.042
353.15 K, 14010 kPa | 751.074
353.15 K, 16061 kPa | 753.214
353.15 K, 18136 kPa | 755.321
353.15 K, 20137 kPa | 757.302
353.15 K, 22100 kPa | 759.195
353.15 K, 24062 kPa | 761.047
353.15 K, 26069 kPa | 762.906
353.15 K, 28075 kPa | 764.73
353.15 K, 30016 kPa | 766.442
373.15 K, 1102.9 kPa | 715.263
373.15 K, 2003.4 kPa | 716.613
373.15 K, 4088.3 kPa | 719.636
373.15 K, 6108.7 kPa | 722.45
373.15 K, 8076 kPa | 725.091
373.15 K, 10096 kPa | 727.71
373.15 K, 12124 kPa | 730.256
373.15 K, 14044 kPa | 732.583
373.15 K, 16078 kPa | 734.983
373.15 K, 18122 kPa | 737.319
373.15 K, 20098 kPa | 739.516
373.15 K, 22116 kPa | 741.702
373.15 K, 24049 kPa | 743.742
373.15 K, 26068 kPa | 745.822
373.15 K, 28108 kPa | 747.871
373.15 K, 29942 kPa | 749.678
393.15 K, 1102.9 kPa | 691.923
393.15 K, 2003.6 kPa | 693.559
393.15 K, 3981 kPa | 697.012
393.15 K, 6085.6 kPa | 700.514
393.15 K, 8006.1 kPa | 703.56
393.15 K, 10040 kPa | 706.659
393.15 K, 12072 kPa | 709.623
393.15 K, 14119 kPa | 712.504
393.15 K, 16086 kPa | 715.168
393.15 K, 18081 kPa | 717.782
393.15 K, 19900 kPa | 720.097
393.15 K, 22039 kPa | 722.726
393.15 K, 24041 kPa | 725.121
393.15 K, 26092 kPa | 727.505
393.15 K, 28070 kPa | 729.738
393.15 K, 29851 kPa | 731.71
413.15 K, 1102.6 kPa | 665.097
413.15 K, 2002.8 kPa | 667.194
413.15 K, 4113.3 kPa | 671.781
413.15 K, 6094.1 kPa | 675.838
413.15 K, 8091.5 kPa | 679.694
413.15 K, 10044 kPa | 683.283
413.15 K, 11973 kPa | 686.66
413.15 K, 14085 kPa | 690.174
413.15 K, 16053 kPa | 693.316
413.15 K, 18080 kPa | 696.427
413.15 K, 20003 kPa | 699.262
413.15 K, 22069 kPa | 702.204
413.15 K, 24049 kPa | 704.916
413.15 K, 26035 kPa | 707.559
413.15 K, 27916 kPa | 709.988
413.15 K, 30021 kPa | 712.618
433.15 K, 2003.3 kPa | 636.052
433.15 K, 4004.9 kPa | 641.895
433.15 K, 6117.7 kPa | 647.513
433.15 K, 7970.2 kPa | 652.088
433.15 K, 10076 kPa | 656.927
433.15 K, 12092 kPa | 661.27
433.15 K, 14024 kPa | 665.195
433.15 K, 16095 kPa | 669.184
433.15 K, 17956 kPa | 672.597
433.15 K, 20025 kPa | 676.22
433.15 K, 22076 kPa | 679.658
433.15 K, 23970 kPa | 682.703
433.15 K, 26097 kPa | 685.993
433.15 K, 27971 kPa | 688.786
433.15 K, 29931 kPa | 691.61
453.15 K, 2000.7 kPa | 597.505
453.15 K, 4003.1 kPa | 606.126
453.15 K, 5998.3 kPa | 613.615
453.15 K, 7995.3 kPa | 620.308
453.15 K, 10007 kPa | 626.429
453.15 K, 12086 kPa | 632.177
453.15 K, 14048 kPa | 637.222
453.15 K, 15954 kPa | 641.798
453.15 K, 17939 kPa | 646.288
453.15 K, 20012 kPa | 650.704
453.15 K, 22018 kPa | 654.751
453.15 K, 24140 kPa | 658.813
453.15 K, 25982 kPa | 662.178
453.15 K, 28127 kPa | 665.939
453.15 K, 30017 kPa | 669.115
473.15 K, 4002.6 kPa | 562.328
473.15 K, 6007.1 kPa | 573.872
473.15 K, 8001.4 kPa | 583.438
473.15 K, 10006 kPa | 591.752
473.15 K, 12009 kPa | 599.085
473.15 K, 14093 kPa | 605.96
473.15 K, 15977 kPa | 611.66
473.15 K, 18013 kPa | 617.325
473.15 K, 20010 kPa | 622.485
473.15 K, 21973 kPa | 627.259
473.15 K, 24020 kPa | 631.94
473.15 K, 25868 kPa | 635.925
473.15 K, 28002 kPa | 640.289
473.15 K, 30014 kPa | 644.229
